Measured values reported in patent US11034725B2, “Compositions and methods for treating cardiovascular disease” (Genentech, Inc., priority 2016, dated 2021).
Where two headings read alike, the source gives them in different places. Numbered stars: 1 amine (or outer) side, 2 acyl side, 3 side chain; on linkers, the order of the positions; unused ones are H or OH. Bridge positions count the residues as written; N and C are the ends. Square brackets hold non-standard residues; d marks the D form. Peptide text beside a SMILES is read from it. * marks the point of attachment. Trp(6-F) = N[C@@H](Cc1c[nH]c2cc(F)ccc12)C(=O)O; NH(CH2)9CO = O=C(CCCCCCCCCN[*:1])[*:2]; hArg = N=C(N)NCCCC[C@H](N)C(=O)O; Cit = NC(=O)NCCC[C@H](N)C(=O)O; Pentanoyl = CCCCC(=O)*; Aoc = NCCCCCCCC(=O)O

Tests used:
[1] = system: His-EGF(A)-Fc; assay: His-EGF(A)-Fc TR-FRET counterscreen
[2] = target: T1, PCSK9Δhelix (Homo sapiens, UniProt Q8NBP7); assay: PCSK9Δhelix/Ab20 TR-FRET binding assay; conditions: for IC50: TR-FRET, read-out: PCSK9Δhelix/Ab20 IC50
T1 construct: Human PCSK9 construct M1-Q692 with an engineered TEV site (residue deletion Y166, R167); made in house; host or cells: CHO
T1 sequence (Q8NBP7 with tags, fused parts or gaps limits assumed): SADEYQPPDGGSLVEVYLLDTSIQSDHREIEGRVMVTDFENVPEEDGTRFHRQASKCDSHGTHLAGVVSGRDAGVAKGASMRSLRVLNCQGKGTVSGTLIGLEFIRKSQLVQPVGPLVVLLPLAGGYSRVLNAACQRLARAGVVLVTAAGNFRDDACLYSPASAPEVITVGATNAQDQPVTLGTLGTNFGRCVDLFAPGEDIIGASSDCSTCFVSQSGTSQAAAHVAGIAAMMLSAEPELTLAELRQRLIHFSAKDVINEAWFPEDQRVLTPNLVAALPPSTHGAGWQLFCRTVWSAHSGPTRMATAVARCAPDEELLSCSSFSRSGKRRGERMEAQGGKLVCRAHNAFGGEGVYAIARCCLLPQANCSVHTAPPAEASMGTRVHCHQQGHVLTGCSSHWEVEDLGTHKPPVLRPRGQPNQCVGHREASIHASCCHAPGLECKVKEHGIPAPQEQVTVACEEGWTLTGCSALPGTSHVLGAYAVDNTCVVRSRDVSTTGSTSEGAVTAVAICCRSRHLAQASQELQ
T1 sequence (Q8NBP7 31-152 partner limits assumed): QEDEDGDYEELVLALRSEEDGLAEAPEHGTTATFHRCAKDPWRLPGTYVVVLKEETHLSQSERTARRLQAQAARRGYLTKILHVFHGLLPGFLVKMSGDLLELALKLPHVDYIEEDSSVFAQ

[3] = target: PCSK9 (Homo sapiens, UniProt Q8NBP7); assay: PCSK9/EGF(A) TR-FRET binding assay; conditions: for IC50: TR-FRET, read-out: PCSK9/EGF(A) IC50
Chain of PCSK9 (Q8NBP7 153-692): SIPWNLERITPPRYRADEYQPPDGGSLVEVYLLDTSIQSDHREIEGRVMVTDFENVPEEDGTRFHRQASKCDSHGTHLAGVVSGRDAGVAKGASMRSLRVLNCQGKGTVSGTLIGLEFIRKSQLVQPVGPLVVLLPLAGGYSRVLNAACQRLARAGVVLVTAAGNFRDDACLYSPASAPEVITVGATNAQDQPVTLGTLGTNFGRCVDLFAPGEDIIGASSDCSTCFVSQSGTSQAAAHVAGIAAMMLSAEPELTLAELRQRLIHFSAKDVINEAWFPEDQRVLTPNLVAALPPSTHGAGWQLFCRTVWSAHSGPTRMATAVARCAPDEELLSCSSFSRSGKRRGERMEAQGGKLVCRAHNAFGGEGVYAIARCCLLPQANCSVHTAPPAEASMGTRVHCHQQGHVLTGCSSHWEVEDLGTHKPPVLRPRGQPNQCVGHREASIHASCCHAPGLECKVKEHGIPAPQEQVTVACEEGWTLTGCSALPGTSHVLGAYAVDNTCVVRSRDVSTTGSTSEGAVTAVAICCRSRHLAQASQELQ
Chain of PCSK9 (Q8NBP7 31-152 partner limits assumed): as the sequence (Q8NBP7 31-152 partner limits assumed) above

[4] = TR-FRET counterscreen, Table 8D, * = some inhibition at highest concentrations, not sufficient to fit an IC50
[5] = Table 8D, disulfide-cyclized extension peptides
[6] = TR-FRET counterscreen, Table 8E, additional compounds

Compound	IC50 [1, 4] [µM]	IC50 [3, 5] [µM]	IC50 ([1]; counterscreen, Example 7) [µM]	IC50 ([2]; Example 7) [µM]	IC50 ([3]; Example 7) [µM]	other results
CC[C@H](C)[C@@H]1NC(=O)[C@H](CCCCNC(=N)N)NC(=O)[C@H](CCC(N)=O)NC(=O)[C@H](CC(C)C)NC(=O)[C@H](CC(N)=O)NC(=O)[C@H](Cc2c[nH]c3ccccc23)NC(=O)[C@@H]2CCCN2C(=O)[C@H](CC(C)C)NC(=O)[C@H](CCCNC(=N)N)NC(=O)[C@@H](NC(C)=O)CSSC[C@@H](C(N)=O)NC(=O)[C@@H]2CCCN2C(=O)[C@H](CC(C)C)NC(=O)CNC1=O [Compound 117] (Ac-CRLPWNLQ[hArg]IGLPC-NH2; disulfide 1-14)	> 50	> 50				IC50 [2, 5]: 0.334 µM
CC(=O)N[C@H](C(=O)N[C@H](C(=O)N[C@@H](Cc1ccccc1)C(=O)N[C@H](C(=O)N[C@@H](CO)C(=O)N[C@@H](Cc1c[nH]c2ccccc12)C(=O)N[C@@H](CCC(=O)O)C(=O)N[C@@H](CCC(=O)O)C(=O)N[C@@H](Cc1ccc(O)cc1)C(=O)N[C@@H](CC(C)C)C(=O)N[C@@H](CC(=O)O)C(=O)N[C@@H](Cc1c[nH]c2ccccc12)C(=O)N[C@H](C(=O)NCCCCCCCC(=O)N[C@@H](CCCCN)C(=O)N[C@@H](CC(C)C)C(=O)N[C@@H](Cc1c[nH]c2ccccc12)C(=O)N[C@@H](CC(N)=O)C(=O)N[C@@H](CC(C)C)C(=O)NCC(=O)N[C@@H](CCCNC(=N)N)C(=O)N[C@H](C(N)=O)C(C)C)C(C)C)[C@@H](C)O)C(C)C)[C@@H](C)O [Compound 10]			> 50	0.63	0.63	
CC(=O)N[C@H]1CSSC[C@@H](C(N)=O)NC(=O)CCCCCCCNC(=O)[C@H](CCCNC(=N)N)NC(=O)[C@H](CCC(N)=O)NC(=O)[C@H](CC(C)C)NC(=O)[C@H](CC(N)=O)NC(=O)[C@H](Cc2c[nH]c3ccccc23)NC(=O)[C@@H]2CCCN2C(=O)[C@H](CC(C)C)NC(=O)[C@H](CCCNC(=N)N)NC1=O [Compound 86] (Ac-CRLPWNLQR[Aoc]C-NH2; disulfide 1-11)	> 50	> 50				inhibition in the PCSK9Δhelix/Ab20 binding assay [2]: removes inhibition; IC50 [2, 5]: > 50 µM
Ac-TVFTSWEEYLDWVGSGGKLWNLGRV-NH2 [Compound 9]			> 50	0.065	0.39	
Ac-PWNLVRIGL-NH2 [Compound 119]			> 50	≥ 49.5	> 50	
CC[C@H](C)[C@@H]1NC(=O)[C@H](CCCNC(=N)N)NC(=O)[C@H](CCC(N)=O)NC(=O)[C@H](CC(C)C)NC(=O)[C@H](CC(N)=O)NC(=O)[C@@H](Cc2c[nH]c3ccccc23)NC(=O)[C@@H]2CCCN2C(=O)[C@H](CC(C)C)NC(=O)[C@H](CCCNC(=N)N)NC(=O)[C@@H](NC(C)=O)CSSC[C@@H](C(N)=O)NC(=O)[C@@H]2CCCN2C(=O)[C@H](CC(C)C)NC(=O)CNC1=O [Compound 106] (Ac-CRLP[dW]NLQRIGLPC-NH2; disulfide 1-14)	> 50	> 50				IC50 [2, 5]: > 50 µM
Ac-DLMPWNLVRIGLLA-NH2 [Compound 54]			> 50	15.4	> 50	
Ac-DLMAWNLVRIGLLR-NH2 [Compound 42]			> 50	28.5	> 50	
CC(=O)N[C@H]1CSSC[C@@H](C(N)=O)NC(=O)CCCCCCCCCNC(=O)[C@H](CCCNC(=N)N)NC(=O)[C@H](CCC(N)=O)NC(=O)[C@H](CC(C)C)NC(=O)[C@H](CC(N)=O)NC(=O)[C@H](Cc2c[nH]c3ccccc23)NC(=O)[C@@H]2CCCN2C(=O)[C@H](CC(C)C)NC(=O)[C@H](CCCNC(=N)N)NC1=O [Compound 84] (Ac-CRLPWNLQR[NH(CH2)9CO]C-NH2; disulfide 1-11)	> 50	> 50				inhibition in the PCSK9Δhelix/Ab20 binding assay [2]: removes inhibition; IC50 [2, 5]: > 50 µM
CC[C@H](C)[C@@H]1NC(=O)[C@H](CCCNC(=N)N)NC(=O)[C@H](CCCCN)NC(=O)[C@H](CC(C)C)NC(=O)[C@H](CC(N)=O)NC(=O)[C@H](Cc2c[nH]c3ccccc23)NC(=O)[C@@H](NC(=O)CCCCCCNC(=O)[C@@H](NC(=O)[C@H](Cc2c[nH]c3ccccc23)NC(=O)[C@H](CC(=O)O)NC(=O)[C@H](CC(C)C)NC(=O)[C@H](Cc2ccc(O)cc2)NC(=O)[C@H](CCC(=O)O)NC(=O)[C@H](CCC(=O)O)NC(=O)[C@H](Cc2c[nH]c3ccccc23)NC(=O)[C@H](CO)NC(=O)[C@@H](NC(=O)[C@H](Cc2ccccc2)NC(=O)[C@@H](NC(=O)[C@@H](NC(C)=O)[C@@H](C)O)C(C)C)[C@@H](C)O)C(C)C)CSSC[C@@H](C(N)=O)NC(=O)CNC(=O)[C@H](CCC(N)=O)NC(=O)[C@H](CO)NC(=O)CNC1=O [Compound 24]			> 50	0.001		inhibition in the PCSK9Δhelix/Ab20 binding assay [2]: maintained potency; inhibition in the PCSK9/EGF(A) binding assay [3]: maintained potency
CC[C@H](C)[C@@H]1NC(=O)[C@H](CCCNC(N)=O)NC(=O)[C@H](CCC(N)=O)NC(=O)[C@H](CC(C)C)NC(=O)[C@H](CC(N)=O)NC(=O)[C@H](Cc2c[nH]c3ccccc23)NC(=O)[C@@H]2CCCN2C(=O)[C@H]([C@@H](C)CC)NC(=O)[C@H](Cc2ccccc2)NC(=O)[C@@H](NC(=O)CNC(=O)[C@H](CO)NC(C)=O)CSSC[C@@H](C(N)=O)NC(=O)[C@@H]2CCCN2C(=O)[C@H](CC(C)C)NC(=O)CNC1=O [Compound 36] (Ac-SGCFIPWNLQ[Cit]IGLPC-NH2; disulfide 3-16)	> 50	> 50				IC50 [2, 5]: > 50 µM
Ac-GGMPWNLVRIGLLR-NH2 [Compound 125]						IC50 [1, 6]: ≥ 50 µM; IC50 ([2]; Table 8E, additional compounds): 7 µM; IC50 ([3]; Table 8E, additional compounds): ≥ 50 µM
CCCCC(=O)N[C@@H](Cc1c[nH]c2ccccc12)C(=O)N[C@@H](CC(N)=O)C(=O)N[C@@H](CC(C)C)C(=O)N[C@H](C(=O)N[C@@H](CCCCNC(=N)N)C(=O)N[C@H](C(=O)NCC(=O)N[C@@H](CC(C)C)C(=O)N[C@@H](CC(C)C)C(=O)N[C@@H](CCCNC(=N)N)C(=O)O)[C@@H](C)CC)C(C)C [Compound 195, n-BuC(O)-WNLV(homoR)IGLLR] (Pentanoyl-WNLV[hArg]IGLLR-OH)						IC50 [1, 6]: 45 µM; IC50 ([2]; Table 8E, additional compounds): 1.7 µM; IC50 ([3]; Table 8E, additional compounds): 22 µM
Ac-DLAPWNLVRIGLLR-NH2 [Compound 43]			> 50	8.19	> 50	
CCCCC(=O)N[C@@H](Cc1c[nH]c2cc(F)ccc12)C(=O)N[C@@H](CC(N)=O)C(=O)N[C@@H](CC(C)C)C(=O)N[C@H](C(=O)N[C@@H](CCCNC(=N)N)C(=O)N[C@H](C(=O)NCC(=O)N[C@@H](CC(C)C)C(=O)N[C@H](C(=O)N[C@@H](CCCNC(=N)N)C(N)=O)[C@@H](C)O)[C@@H](C)CC)C(C)C [Compound 174] (Pentanoyl-[Trp(6-F)]NLVRIGLTR-NH2)						IC50 [1, 6]: ≥ 50 µM; IC50 ([2]; Table 8E, additional compounds): 6.2 µM; IC50 ([3]; Table 8E, additional compounds): ≥ 50 µM
CC[C@H](C)[C@@H]1NC(=O)[C@H](CCCNC(=N)N)NC(=O)[C@H](CCC(N)=O)NC(=O)[C@H](CC(C)C)NC(=O)[C@H](C)NC(=O)[C@H](Cc2c[nH]c3ccccc23)NC(=O)[C@@H]2CCCN2C(=O)[C@H](CC(C)C)NC(=O)[C@H](CCCNC(=N)N)NC(=O)[C@@H](NC(C)=O)CSSC[C@@H](C(N)=O)NC(=O)[C@@H]2CCCN2C(=O)[C@H](CC(C)C)NC(=O)CNC1=O [Compound 75] (Ac-CRLPWALQRIGLPC-NH2; disulfide 1-14)	> 50	> 50				IC50 [2, 5]: 49.5 µM
Ac-MDSFPGWNLVRIGLLR-NH2 [Compound 153]						IC50 [1, 6]: > 50 µM; IC50 ([3]; Table 8E, additional compounds): 12 µM
CC[C@H](C)[C@@H]1NC(=O)[C@H](CCCNC(=N)N)NC(=O)CNC(=O)[C@H](CC(C)C)NC(=O)[C@H](CC(N)=O)NC(=O)[C@H](Cc2c[nH]c3ccccc23)NC(=O)[C@@H](NC(=O)CNC(=O)[C@H](CO)NC(=O)CNC(=O)[C@@H](NC(=O)[C@H](Cc2c[nH]c3ccccc23)NC(=O)[C@H](CC(=O)O)NC(=O)[C@H](CC(C)C)NC(=O)[C@H](Cc2ccc(O)cc2)NC(=O)[C@H](CCC(=O)O)NC(=O)[C@H](CCC(=O)O)NC(=O)[C@H](Cc2c[nH]c3ccccc23)NC(=O)[C@H](CO)NC(=O)[C@@H](NC(=O)[C@H](Cc2ccccc2)NC(=O)[C@@H](NC(=O)[C@@H](NC(C)=O)[C@@H](C)O)C(C)C)[C@@H](C)O)C(C)C)CSSC[C@@H](C(N)=O)NC(=O)CNC(=O)[C@H](CCC(N)=O)NC(=O)[C@H](CO)NC(=O)CNC1=O [Compound 11] (Ac-TVFTSWEEYLDWVGSGCWNLGRIGSQGC-NH2; disulfide 17-28)			> 50		0.34	
Ac-ESYPGWNLVRIGLLR-NH2 [Compound 156]						IC50 [1, 6]: > 50 µM; IC50 ([3]; Table 8E, additional compounds): 11 µM
CC[C@H](C)[C@H](NC(=O)[C@H](CCCCNC(=N)N)NC(=O)[C@H](CCCCN)NC(=O)[C@H](CC(C)C)NC(=O)[C@H](CC(N)=O)NC(=O)[C@H](Cc1c[nH]c2ccccc12)NC(=O)CNC(=O)[C@@H]1CCCN1C(=O)[C@H](Cc1ccccc1)NC(=O)[C@H](CO)NC(=O)[C@H](CCC(=O)O)NC(=O)[C@H](CCSC)NC(C)=O)C(=O)NCC(=O)N[C@@H](CC(C)C)C(=O)N[C@@H](CC(C)C)C(=O)N[C@@H](CCCNC(=N)N)C(N)=O [Compound 233] (Ac-MESFPGWNLK[hArg]IGLLR-NH2)						IC50 [1, 6]: ≥ 50 µM; IC50 ([3]; Table 8E, additional compounds): 3.1 µM
CC[C@H](C)[C@@H]1NC(=O)[C@H](CCCNC(=N)N)NC(=O)[C@H](CCC(N)=O)NC(=O)[C@H](CC(C)C)NC(=O)[C@H](CC(N)=O)NC(=O)[C@H](Cc2c[nH]c3ccccc23)NC(=O)[C@@H]2CCCN2C(=O)[C@H](CC(C)C)NC(=O)[C@H](CCCNC(=N)N)NC(=O)[C@H](NC(C)=O)CSSC[C@@H](C(N)=O)NC(=O)[C@@H]2CCCN2C(=O)[C@H](CC(C)C)NC(=O)CNC1=O [Compound 110] (Ac-[dC]RLPWNLQRIGLPC-NH2; disulfide 1-14)	> 50	> 50				
